Values of other authors as cited in US7838561B2, “Method for preventing or treating cardiac hypertrophy” (Wisconsin Alumni Research Foundation, priority 2004, dated 2010).
“Also recorded” adds a separate entry of the source. Like-named read-outs stand apart in the source and are kept apart here.

How the values were obtained:
RARβ [1] = target: T1, RARβ (Homo sapiens, UniProt P10826)
T1 sequence (P10826 1-455): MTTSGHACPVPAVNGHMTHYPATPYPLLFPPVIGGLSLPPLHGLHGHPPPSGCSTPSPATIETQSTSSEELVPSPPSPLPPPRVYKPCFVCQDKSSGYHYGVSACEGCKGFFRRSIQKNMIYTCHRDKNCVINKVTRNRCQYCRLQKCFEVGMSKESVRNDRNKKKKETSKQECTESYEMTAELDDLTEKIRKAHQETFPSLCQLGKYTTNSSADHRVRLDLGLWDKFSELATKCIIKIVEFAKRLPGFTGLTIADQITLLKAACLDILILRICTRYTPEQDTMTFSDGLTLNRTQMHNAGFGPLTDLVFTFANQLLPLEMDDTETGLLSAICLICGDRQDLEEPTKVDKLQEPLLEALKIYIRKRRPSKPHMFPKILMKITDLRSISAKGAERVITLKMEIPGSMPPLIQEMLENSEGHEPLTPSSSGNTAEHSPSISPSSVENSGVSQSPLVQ

RARγ [2] = target: T2, RARγ (Homo sapiens, UniProt P13631)
T2 sequence (P13631 1-454): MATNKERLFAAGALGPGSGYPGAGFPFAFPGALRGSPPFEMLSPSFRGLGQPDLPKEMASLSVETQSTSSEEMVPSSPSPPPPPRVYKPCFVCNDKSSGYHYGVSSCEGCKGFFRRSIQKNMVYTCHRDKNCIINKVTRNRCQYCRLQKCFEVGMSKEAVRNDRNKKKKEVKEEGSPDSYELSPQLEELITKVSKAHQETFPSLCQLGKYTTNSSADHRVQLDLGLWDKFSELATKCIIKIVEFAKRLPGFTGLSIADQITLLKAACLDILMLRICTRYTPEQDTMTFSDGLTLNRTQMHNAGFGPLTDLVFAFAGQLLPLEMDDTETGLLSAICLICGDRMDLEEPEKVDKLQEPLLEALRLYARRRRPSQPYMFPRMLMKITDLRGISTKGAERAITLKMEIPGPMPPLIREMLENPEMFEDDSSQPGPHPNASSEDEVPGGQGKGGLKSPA

RARα [3] = target: T3, RARα (Homo sapiens, UniProt P10276)
T3 sequence (P10276 1-462): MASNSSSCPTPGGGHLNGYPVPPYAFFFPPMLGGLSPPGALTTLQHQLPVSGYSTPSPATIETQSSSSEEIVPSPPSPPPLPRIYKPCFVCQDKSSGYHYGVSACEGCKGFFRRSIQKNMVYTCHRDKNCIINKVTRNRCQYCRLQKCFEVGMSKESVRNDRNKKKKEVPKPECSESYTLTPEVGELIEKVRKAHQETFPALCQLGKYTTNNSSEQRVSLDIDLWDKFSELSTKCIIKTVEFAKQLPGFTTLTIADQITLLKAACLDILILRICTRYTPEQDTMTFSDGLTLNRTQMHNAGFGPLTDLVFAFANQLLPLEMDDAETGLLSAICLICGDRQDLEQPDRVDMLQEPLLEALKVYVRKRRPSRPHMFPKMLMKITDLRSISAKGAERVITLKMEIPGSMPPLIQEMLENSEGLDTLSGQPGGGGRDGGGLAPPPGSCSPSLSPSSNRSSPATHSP

[4] = system: human cervical cancer cell line ECE16-1
RARs [5] = system: RARs
[6] = topical, 0, 1.44, 7.2, 36.0 μmol/kg/day, mice
[7] = system: mouse limb bud chondrocytes
[8] = system: prostate carcinoma cell lines
[9] = system: bone marrow granulocytic precursors; conditions: oral, 0.5 mg/kg/day for 10 days, mice
RARγ [10] = target: T2, RARγ; remark: listed apart in the source
RARα [11] = target: T3, RARα; remark: listed apart in the source
RARβ [12] = target: T1, RARβ; remark: listed apart in the source
[13] = system: acute promyelocytic leukemia; conditions: RA triggers differentiation
[14] = system: nuclear retinoid receptors
RBP = RBP (Homo sapiens, UniProt P02753)
[15] = in vivo
[16] = system: rabbit HIG-82 synovial fibroblasts; conditions: 0.01 to 10 μM
[17] = ip, 15 mg/kg/d
[18] = 20 mg/kg/day, 7 days, subcutaneous, rats
mammary epithelial cell = conditions: 1 μM
testicular cells [19] = conditions: rabbits, 2, 10, 50 mg/kg orally for 1 wk
RARs [20] = conditions: in vitro
testicular cells [21] = system: testicular cells
[22] = system: gastrulation-stage zebrafish embryo

**Q.** What does the source list for `Cc1ccc(C2=CCC(C)(C)c3ccc(C#Cc4ccc(C(=O)O)cc4)cc32)cc1` [AGN 193109]?
**A.** Kd (RARβ [1]): 7 nM; Kd (RARγ [2]): 7 nM; Kd (RARα [3]): 16 nM; partial agonist activity [4]: did not have partial agonist activity; retinoid-mediated activities (proliferation, keratin & RARβ gene expression) ([4]; 10 nM, 100 nM): suppresses retinoid-mediated activities; Receptor Specificity (RARs [5]): pan-RAR antagonist; also recorded: RARαβγ; hormone action of RA in skin (later in development, single oral dose of 100 mg/kg): suppresses the hormone action of RA in skin; placental transfer (pregnant mouse): readily crosses the placenta; antagonism of retinoid-specific events in craniofacial development (pregnant mouse, 1 mg/kg single oral dose): sufficient to antagonize retinoid-specific events in craniofacial development; effect on TTNPB toxicity (cutaneous irritation, weight loss, mortality) [6]: counteracts the toxicity symptoms

**Q.** With `Cc1ccc(C2=CC(C)(C)Oc3c(Br)cc(C(=O)Nc4ccc(C(=O)O)c(F)c4)cc32)cc1` [AGN 194301] as the compound, how does the Kd (RARβ [1]) read?
**A.** 320 nM

**Q.** What about the Kd (RARγ [2]) of the same compound?
**A.** 7250 nM

**Q.** And the Kd (RARα [3])?
**A.** 3 nM

**Q.** And the “Receptor Specificity” value (RARs [5])?
**A.** RARα

**Q.** What about the “differentiation of limb bud chondrocytes, Sox9 induction” value ([7]; 1 μM) of the same compound?
**A.** overcome RA signaling and permit the differentiation of mouse limb bud chondrocytes

**Q.** Which Kd (RARβ [1]) does the source give for `CCc1ccc(C2=CC(C)(C)Sc3ccc(C#Cc4ccc(C(=O)O)cc4)cc32)cc1` [AGN 194310] here?
**A.** 2 nM

**Q.** What about the Kd (RARγ [2]) of the same compound?
**A.** 5 nM

**Q.** What about the Kd (RARα [3]) of the same compound?
**A.** 3 nM

**Q.** What about the “Receptor Specificity” value (RARs [5]) of the same compound?
**A.** pan-RAR antagonist; also recorded: RARαβγ

**Q.** What about the “differentiation of limb bud chondrocytes, Sox9 induction” value ([7]; 50 nM) of the same compound?
**A.** overcome RA signaling and permit the differentiation of mouse limb bud chondrocytes

**Q.** And the “potency relative to all-trans-retinoic acid” value [8]?
**A.** 12-22 times

**Q.** What about the “frequency of bone marrow granulocytic precursors” value [9] of the same compound?
**A.** sufficient to elevate the frequency of bone marrow granulocytic precursors

**Q.** And the “signs of ill health or abnormal pathology” value [9]?
**A.** did not show signs of ill health or abnormal pathology

**Q.** For `CC1=C(/C=C/C(C)=C/C=C/C(C)=C/C(=O)O)C(C)(C)CCC1` [All-trans-retinoic acid], which “Receptor Specificity” value (RARs [5]) is on record?
**A.** RARαβγ

**Q.** With `CC1(C)CC=C(c2cnc3ccccc3c2)c2cc(C(=O)Nc3ccc(C(=O)O)cc3)ccc21` [BMS 614] as the compound, how does the “antagonism of RARγ transactivation” value (RARγ [10]) read?
**A.** no antagonism

**Q.** What about the “RARβ Kd” value (RARβ [1]) of the same compound?
**A.** not bound

**Q.** What about the “RARγ Kd” value (RARγ [2]) of the same compound?
**A.** not bound

**Q.** What about the Kd (RARα [3]) of the same compound?
**A.** 2.5 nM

**Q.** And the “agonist or antagonist action at RARα” value (RARα [11])?
**A.** antagonist

**Q.** And the “molar excess to RA at which RARα transactivation is antagonised” value (RARα [11])?
**A.** 100 fold

**Q.** And the “Receptor Specificity” value (RARs [5])?
**A.** RARα

**Q.** What about the “antagonism of RARβ transactivation” value (RARβ [12]) of the same compound?
**A.** at best modestly

**Q.** Which results are given for `CC1(C)CC=C(c2ccccc2)c2cc(C(=O)Nc3ccc(C(=O)O)cc3)ccc21` [BMS 185411]?
**A.** agonist or antagonist action at RARγ (RARγ [10]): weak agonist; Kd (RARβ [1]): ~1300 nM; Kd (RARγ [2]): ~20000 nM; Kd (RARα [3]): ~150 nM; agonist or antagonist action at RARα (RARα [11]): antagonist; activity in the acute promyelocytic leukemia assay [13]: no activity; Receptor Specificity (RARs [5]): RARα; agonist or antagonist action at RARβ (RARβ [12]): agonist

**Q.** With `O=C(O)c1ccc2cc(-c3ccc(O)c(C45CC6CC(CC(C6)C4)C5)c3)ccc2c1` [CD437] as the compound, how does the “binding to RARs and RXRs” value (RAR and RXR) read?
**A.** weakly bind

**Q.** With `CC1=C(/C=C/C(C)=C/C=C/C(C)=C/C(=O)Nc2ccc(O)cc2)C(C)(C)CCC1` [Fenretinide, N-[4-hydroxyphenyl]retinamide] as the compound, how does the “trans-activation of the nuclear retinoid receptors” value [14] read?
**A.** poorly trans-activates the nuclear retinoid receptors

**Q.** What about the “binding to RBP and effect on RBP-TTR” value (RBP) of the same compound?
**A.** binds to RBP, displacing RBP from transthyretin (TTR)

**Q.** What about the “binding to RARs and RXRs” value (RAR and RXR) of the same compound?
**A.** weakly bind

**Q.** What about the “binding to RARs and RXRs” value (RAR and RXR; listed as 4-hydroxphenylretinamide) of the same compound?
**A.** weakly

**Q.** What about the “concentrations of vitamin A and RBP in the bloodstream” value [15] of the same compound?
**A.** lower the concentrations of both vitamin A and retinol binding protein (RBP)

**Q.** And the “symptoms of vitamin A insufficiency” value [15]?
**A.** impaired dark vision adaptation and epithelial keratosis

**Q.** For `CCCCCCCOc1cc2c(cc1/C(C)=C/c1ccc(C(=O)O)cc1)C(C)(C)CCS2(=O)=O` [Ro 41-5253], which Kd (RARβ [1]) is on record?
**A.** 2400 nM

**Q.** What about the Kd (RARγ [2]) of the same compound?
**A.** 3300 nM

**Q.** What about the Kd (RARα [3]) of the same compound?
**A.** 60 nM

**Q.** What about the “Receptor Specificity” value (RARs [5]) of the same compound?
**A.** RARα

**Q.** With `CCCCCCCOc1cc2c(cc1/C(C)=C/C=C/C(C)=C/C(=O)O)C(C)(C)CCS2(=O)=O` [Ro 46-5471] as the compound, how does the Kd (RARβ [1]) read?
**A.** 5100 nM

**Q.** What about the Kd (RARγ [2]) of the same compound?
**A.** 240 nM

**Q.** What about the Kd (RARα [3]) of the same compound?
**A.** 27 nM

**Q.** And the “Receptor Specificity” value (RARs [5])?
**A.** RARα

**Q.** Which “gene expression of pro-inflammatory collagenase” value [16] does the source give for BMS 189453 here?
**A.** suppresses gene expression of pro-inflammatory collagenase

**Q.** What about the “overt toxicity or hypovitaminosis A” value [17] of the same compound?
**A.** not observed

**Q.** What about the “inflammation and joint erosion” value ([17]; mouse and rat, two models) of the same compound?
**A.** delayed the onset, severity, and progression of inflammation and joint erosion

**Q.** What about the “agonist or antagonist action at RARγ” value (RARγ [10]) of the same compound?
**A.** antagonist

**Q.** What about the Kd (RARγ [2]) of the same compound?
**A.** ~20 nM

**Q.** And the Kd (RARα [3])?
**A.** ~15 nM

**Q.** What about the AP-1 activity (AP-1) of the same compound?
**A.** represses AP-1 activity

**Q.** And the “progression of experimental glomerulonephritis” value [18]?
**A.** reduce the progression of experimental glomerulonephritis

**Q.** What about the “toxicity (eating or drinking, posturing or behavior, weight loss)” value [18] of the same compound?
**A.** did not show toxicity

**Q.** What about the “mammary epithelial cell growth” value (mammary epithelial cell) of the same compound?
**A.** inhibits mammary epithelial cell growth

**Q.** And the “agonist or antagonist action at RARα” value (RARα [11])?
**A.** antagonist

**Q.** What about the “Receptor Specificity” value (RARs [5]) of the same compound?
**A.** RARαγ

**Q.** What about the “agonist or antagonist action at RARβ” value (RARβ [12]) of the same compound?
**A.** weak RARβ agonist

**Q.** And the testicular toxicity (testicular cells [19])?
**A.** caused the atrophy and degeneration of testicular cells

**Q.** What about the “transactivation of the RARs” value (RARs [20]) of the same compound?
**A.** does not transactivate the RARs

**Q.** What about the overt toxicity (testicular cells [21]; 2, 10, 50 mg/kg doses) of the same compound?
**A.** not overtly toxic

**Q.** What about the “testicular atrophy after ceasing treatment” value (testicular cells [21]; 30 days after ceasing treatment, 2-50 mg/kg) of the same compound?
**A.** testicular atrophy was seen at even low doses

**Q.** What about the overt toxicity (testicular cells [21]; rats, 240 mg/kg daily for 30 days) of the same compound?
**A.** Overt toxicity was observed

**Q.** And the testicular toxicity (testicular cells [21]; rats, 2, 10, 50 mg/kg for 1, 3, 7 days)?
**A.** caused the atrophy and degeneration of testicular cells

**Q.** And the effect on myocardiogenesis [22]?
**A.** suppress myocardiogenesis
